We go through 9 molecules from patent publication US10131670B2, “Bicyclic heteroaryl derivatives as CFTR potentiators” (CYSTIC FIBROSIS FOUNDATION THERAPEUTICS, INC., priority 2016, dated 2018).

What is called EC50 is the concentration that produces a half-maximal response.

One test has as its target CFTR (Homo sapiens, UniProt P13569). The test can be described thus: Ussing Chamber Electrophysiology Assay of CFTR Potentiation in CF Bronchial Epithelial Cells. It is filed as cell-based. To be noted: primary CF hBE cells, short-circuit current, scaled to DMSO (0%) and positive control potentiator (100%). An excerpt:
Ussing Chamber Electrophysiology Assay of CFTR Potentiation in CF Bronchial Epithelial Cells
Primary cystic fibrosis human bronchial epithelial (CF hBE) cells were expanded and cultured according to published methods (Neuberger et al., Ch. 4 of Cystic Fibrosis, Methods in Molecular Biology vol. 741, pp. 39-54 (2011)). Well-differentiated cells (>30 days at air/liquid interface) on Snapwell filters (Corning Costar, cat. no. 3801) were mounted in Ussing chambers (Physiologic Instruments, Inc., San Diego, Calif.). F508del/F508del cultures were assayed at 27° C. and G551D/F508del cells were assayed at 35° C. HEPES buffered physiological saline (composition (in mM): 137 NaCl, 4 KCl, 1 MgCl2, 1.8 CaCl2, 10 HEPES Na) was used in both apical and basolateral chambers. Chambers were bubbled with air to promote mixing and the voltage was clamped to zero. Amiloride (30 uM), forskolin (10 uM), test compound (4 increasing concentrations), and CFTRinh-172 (20 uM) were added sequentially with 20-25 minutes between additions. Short-circuit currents were acquired and analyzed using LabScribe2. Test compound responses were scaled relative to responses for DMSO (0%) and the maximal response of a positive control potentiator (100%).

In a further test the target is F508del V470 CFTR (Homo sapiens, UniProt P13569, DEL508-508). The test can be described thus: FRT Ion Flux Assay of F508del CFTR Potentiation. The conditions noted are these: FRT cells expressing F508del V470 CFTR and halide-sensitive YFP, forskolin 20 uM, 30 min. It is filed as cell-based. On the procedure:
FRT Ion Flux Assay of F508del CFTR Potentiation
Fischer rat thyroid (FRT) cell lines stably expressing recombinant F508del V470 CFTR and halide-sensitive yellow fluorescent protein (Pedemonte et al., J. Clin. Invest. 115(9) 2564-71 (2005)) were seeded at 25,000 cells/well in 50 uL/well of culture medium into black-walled, clear bottom tissue-culture-treated 384-well plates (Corning, cat. no. 3712). After one day, the cells were pre-incubated at 27° C./5% CO2 for 16-24 hours. The cells were then washed with dPBS and treated with forskolin (20 uM) and test compound for 30 min by addition of 20 uL of compound dilution buffer (dPBS containing forskolin and test compound). Plates were loaded into FLIPR384 fluorescence imaging plate reader (Molecular Devices). After an initial fluorescence reading, iodide buffer (25 uL) (composition (in mM): 137 NaI, 1.5 K2PO4, 8.1 NaH2PO4, 2.7 KCl, 0.5 MgCl2, 1 CaCl2) was added and a second fluorescence reading was made after approximately 21 seconds. Data treatment involved division of the second fluorescence reading by the initial fluorescence reading, then scaling of the resulting normalized endpoint fluorescence with respect to the responses for DMSO (0%) and a positive control potentiator (100%).

F508del V470 CFTR, sequence (P13569 with tags, fused parts or gaps DEL508-508): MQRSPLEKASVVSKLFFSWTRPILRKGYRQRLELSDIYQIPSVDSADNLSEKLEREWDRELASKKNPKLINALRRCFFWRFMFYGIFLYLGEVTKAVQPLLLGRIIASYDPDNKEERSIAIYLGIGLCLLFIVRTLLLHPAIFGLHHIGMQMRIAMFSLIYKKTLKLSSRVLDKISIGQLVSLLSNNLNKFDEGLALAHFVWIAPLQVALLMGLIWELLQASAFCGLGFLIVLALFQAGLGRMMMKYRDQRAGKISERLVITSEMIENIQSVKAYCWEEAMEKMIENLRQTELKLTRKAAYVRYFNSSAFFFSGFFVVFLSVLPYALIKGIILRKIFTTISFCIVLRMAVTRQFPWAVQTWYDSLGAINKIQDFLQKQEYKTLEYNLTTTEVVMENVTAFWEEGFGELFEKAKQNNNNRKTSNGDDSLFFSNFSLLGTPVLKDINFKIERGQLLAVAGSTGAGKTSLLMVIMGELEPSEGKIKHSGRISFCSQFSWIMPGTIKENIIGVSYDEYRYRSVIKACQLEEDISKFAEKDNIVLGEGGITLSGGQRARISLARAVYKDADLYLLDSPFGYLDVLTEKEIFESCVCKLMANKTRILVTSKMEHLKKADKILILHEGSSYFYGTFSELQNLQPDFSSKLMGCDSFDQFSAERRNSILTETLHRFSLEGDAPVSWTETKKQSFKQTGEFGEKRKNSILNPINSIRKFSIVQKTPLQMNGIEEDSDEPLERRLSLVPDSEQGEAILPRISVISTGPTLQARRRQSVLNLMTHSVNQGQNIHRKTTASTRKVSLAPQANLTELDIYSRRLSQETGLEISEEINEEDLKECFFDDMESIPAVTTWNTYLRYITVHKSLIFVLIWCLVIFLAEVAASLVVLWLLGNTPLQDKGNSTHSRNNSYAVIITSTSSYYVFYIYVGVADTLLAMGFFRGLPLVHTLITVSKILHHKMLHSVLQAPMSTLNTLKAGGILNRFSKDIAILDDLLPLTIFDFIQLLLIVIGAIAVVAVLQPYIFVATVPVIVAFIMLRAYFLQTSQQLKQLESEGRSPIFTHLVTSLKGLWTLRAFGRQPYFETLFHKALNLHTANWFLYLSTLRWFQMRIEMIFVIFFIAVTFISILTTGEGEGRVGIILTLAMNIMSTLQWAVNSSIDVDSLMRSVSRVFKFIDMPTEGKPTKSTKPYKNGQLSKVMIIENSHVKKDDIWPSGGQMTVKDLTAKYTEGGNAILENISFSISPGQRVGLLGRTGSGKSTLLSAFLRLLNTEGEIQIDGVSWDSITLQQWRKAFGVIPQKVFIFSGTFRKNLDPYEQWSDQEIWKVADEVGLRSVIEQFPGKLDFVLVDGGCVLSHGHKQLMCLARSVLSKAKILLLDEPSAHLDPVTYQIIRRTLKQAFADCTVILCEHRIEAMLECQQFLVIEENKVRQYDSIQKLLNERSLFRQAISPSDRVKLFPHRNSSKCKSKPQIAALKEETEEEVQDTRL

In the case of `CC(c1cnn(-c2ccccc2F)c1)c1c(C#N)c(-c2cnc(C(F)(F)F)nc2)c2c(N)ncnn12` (single isomer, unassigned) [Example 13, 4-amino-7-{1-[1-(2-fluorophenyl)-1H-pyrazol-4-yl]ethyl}-5-[2-(trifluoromethyl)pyrimidin-5-yl]pyrrolo[2,1-f][1,2,4]triazine-6-carbonitrile], the EC50 at CFTR was found to be 0.42 nM; on F508del V470 CFTR, 0.62 nM.
The like results for `CCC(c1cnn(-c2ccccc2F)c1)c1c(C#N)c(-c2cnc(C(F)(F)F)nc2)c2c(N)ncnn12` (single isomer, unassigned) [Example 14, 4-amino-7-{1-[1-(2-fluorophenyl)-1H-pyrazol-4-yl]propyl}-5-[2-(trifluoromethyl)pyrimidin-5-yl]pyrrolo[2,1-f][1,2,4]triazine-6-carbonitrile] were, in that order, 2 nM and 6.59 nM.
Turning to `CCC(c1cnn(-c2ccccc2F)c1)c1c(C#N)c(-c2cnc(C(F)(F)F)nc2)c2c(N)ncnn12` (single isomer, unassigned) [Example 15, 4-amino-7-{1-[1-(2-fluorophenyl)-1H-pyrazol-4-yl]propyl}-5-[2-(trifluoromethyl)pyrimidin-5-yl]pyrrolo[2,1-f][1,2,4]triazine-6-carbonitrile], the results for the half-maximal effective concentration (EC50) on CFTR and on F508del V470 CFTR were 0.2 nM and 0.56 nM, respectively.
The like results for `CCC(c1cnn(-c2ccc(F)cc2F)c1)c1c(C#N)c(-c2cnc(C(F)(F)F)nc2)c2c(N)ncnn12` (single isomer, unassigned) [Example 16, 4-amino-7-{1-[1-(2,4-difluorophenyl)-1H-pyrazol-4-yl]propyl}-5-[2-(trifluoromethyl)pyrimidin-5-yl]pyrrolo[2,1-f][1,2,4]thazine-6-carbonitrile] were, in that order, 0.42 nM and 0.56 nM.
As for `CCC(c1cnn(-c2ccc(F)cc2F)c1)c1c(C#N)c(-c2cnc(C(F)(F)F)nc2)c2c(N)ncnn12` (single isomer, unassigned) [Example 17, 4-amino-7-{1-[1-(2,4-difluorophenyl)-1H-pyrazol-4-yl]propyl}-5-[2-(trifluoromethyl)pyrimidin-5-yl]pyrrolo[2,1-f][1,2,4]triazine-6-carbonitrile], the values for the concentration giving a half-maximal response (EC50) on CFTR and on F508del V470 CFTR were 3 nM and 13.3 nM, respectively.
`CC(c1cc(-c2ccccc2F)no1)c1c(C#N)c(-c2cnc(C(F)(F)F)nc2)c2c(N)ncnn12` (single isomer, unassigned) [Example 18, 4-amino-7-{1-[3-(2-fluorophenyl)-1,2-oxazol-5-yl]ethyl}-5-[2-(trifluoromethyl)pyrimidin-5-yl]pyrrolo[2,1-f][1,2,4]triazine-6-carbonitrile]: the 50% effective concentration (EC50) at CFTR came to 1.67 nM; at F508del V470 CFTR, 3.1 nM.
For the molecule `CC(c1cc(-c2ccccc2F)no1)c1c(C#N)c(-c2cnc(C(F)(F)F)nc2)c2c(N)ncnn12` (single isomer, unassigned) [Example 19, 4-amino-7-{1-[3-(2-fluorophenyl)-1,2-oxazol-5-yl]ethyl}-5-[2-(trifluoromethyl)pyrimidin-5-yl]pyrrolo[2,1-f][1,2,4]triazine-6-carbonitrile], the 50% effective concentration (EC50) at CFTR was 5 nM; on F508del V470 CFTR it was 13.8 nM.
The corresponding values for `CC(c1cnn(-c2ccc(F)cc2F)c1)c1c(C#N)c(-c2cnc(C(F)(F)F)nc2)c2c(N)ncnn12` (single isomer, unassigned) [Example 20, 4-amino-7-{1-[1-(2,4-difluorophenyl)-1H-pyrazol-4-yl]ethyl}-5-[2-(trifluoromethyl)pyrimidin-5-yl]pyrrolo[2,1-f][1,2,4]triazine-6-carbonitrile] are 8.94 nM and 30 nM.
For the molecule `CC(c1cnn(-c2ccc(F)cc2F)c1)c1c(C#N)c(-c2cnc(C(F)(F)F)nc2)c2c(N)ncnn12` (single isomer, unassigned) [Example 21], the concentration for a half-maximal effect (EC50) came to 0.66 nM on CFTR and 3.13 nM on F508del V470 CFTR.
